The text below walks through data of ChEMBL document CHEMBL1201862, “PubChem BioAssay data set” (2004).

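All cell lines were grown in 96-well plates and treated with compound for 48 hours. GI50 marks 50% less growth.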 Activity calls are given as the source filed them. Cut-off read from the data, not from the text of the source: active = GI50 up to about 1.1 µM and inactive = higher.

Test systems include BT-549; CCRF-CEM; EKVX; HCC 2998; HCT-15; HL-60; MDA-MB-435; NCI-H23; OVCAR-4; SF-539; SK-MEL-28; SK-MEL-2; SK-OV-3; TK-10; MOLT-4; NCI-H522; SR; T47D; U-251; MDA-N.
What all share (assay): NCI tumour cell line growth inhibition, 48 h

Take `N=c1c2ccccc2nc2oc3ccccc3n12`: the GI50 in the assay with BT-549 is 51.2 µM (inactive); in the assay on CCRF-CEM it was 55 µM (inactive); in the assay with EKVX, 1.91 µM (inactive); in the assay with HCC 2998, > 100 µM (inactive); with HCT-15 it was over 100 µM; in the assay on HL-60 it was > 100 µM (inactive). The GI50 in the assay with MDA-MB-435 was > 100 µM (inactive); with NCI-H23, 35.2 µM (inactive); with OVCAR-4, 29 µM (inactive); in the assay on SF-539, 37.2 µM (inactive); in the assay on SK-MEL-28 it was > 10 µM (inactive); in the assay with SK-MEL-2, 37.5 µM (inactive). For the same compound, the GI50 in the assay with SK-OV-3 was 40.6 µM (inactive); in the assay with TK-10, 28.4 µM (inactive).

For the compound `OCC1C(O)C(O)[C@@H]2SCCN12` (stereo partly drawn), the GI50 with BT-549 is > 100 µM (inactive); with CCRF-CEM, > 100 µM (inactive); in the assay with EKVX it was > 100 µM (inactive); with HCC 2998 it was > 100 µM (inactive); in the assay on HCT-15, over 100 µM; with HL-60, > 100 µM (inactive). For the same compound, the GI50 in the assay with MDA-MB-435, with MOLT-4, in the assay with NCI-H23, in the assay on NCI-H522, with OVCAR-4 and in the assay on SK-MEL-28 was > 100 µM (inactive) throughout. Moreover, the GI50 in the assay on SK-MEL-2, in the assay with SK-OV-3, in the assay on SR, with T47D, with TK-10 and with U-251 was > 100 µM (inactive) throughout.

Take `COc1cc(C2SC(C)C(=O)N2c2ccc(-c3csc(NS(=O)(=O)c4ccc(Cl)c(OC)c4)n3)cc2)ccc1O` (stereo not drawn): the GI50 was 14.6 µM (inactive) in the assay on CCRF-CEM; 33.9 µM with HCT-15; 48.2 µM (inactive) in the assay on HL-60; > 100 µM (inactive) with MDA-MB-435; 41.2 µM (inactive) in the assay on MDA-N; 25.1 µM (inactive) in the assay on MOLT-4. Moreover, the GI50 in the assay with NCI-H23 is 22.6 µM (inactive); with NCI-H522 it was 21.7 µM (inactive); in the assay on OVCAR-4 it was 26.3 µM (inactive); with SF-539 it was 32.7 µM (inactive); in the assay on SK-MEL-28 it was > 100 µM (inactive); with SK-MEL-2, 48.5 µM (inactive). Further, the GI50 in the assay with SK-OV-3 was > 100 µM (inactive); with SR, 23.9 µM (inactive); with T47D, 40.5 µM (inactive); in the assay with TK-10, > 100 µM (inactive); in the assay with U-251, 46.5 µM (inactive).

`COc1ccc(-c2nc3cc(C(F)(F)F)ccc3n2CC2CCCN3CCCCC23)cc1` (stereo not drawn): the GI50 was 13.6 µM (inactive) in the assay with CCRF-CEM; 12.1 µM (inactive) in the assay with EKVX; 12.1 µM (inactive) in the assay with HCC 2998; 15.7 µM with HCT-15; 14.3 µM (inactive) with HL-60; 15.8 µM (inactive) with MDA-MB-435. In addition, the GI50 is 19.3 µM (inactive) in the assay with MDA-N; 12.7 µM (inactive) in the assay with MOLT-4; 15.6 µM (inactive) with NCI-H23; 15.6 µM (inactive) in the assay on NCI-H522; 17.1 µM (inactive) with OVCAR-4; 16.8 µM (inactive) with SF-539. Besides, the GI50 in the assay with SK-MEL-28 was 14.9 µM (inactive); in the assay with SK-MEL-2, 15.5 µM (inactive); in the assay on SK-OV-3 it was 17.7 µM (inactive); in the assay with SR, 13.3 µM (inactive); with T47D it was 18.5 µM (inactive); in the assay with TK-10 it was 16.6 µM (inactive). In the assay with U-251, the GI50 is 17 µM (inactive).

Consider `O=S(=O)(CCn1c(Sc2ccccc2)c(Sc2ccccc2)c2ccccc21)c1ccccc1`, for which the GI50 with BT-549 is > 100 µM (inactive); with CCRF-CEM, > 100 µM (inactive); with EKVX it was > 100 µM (inactive); in the assay on HCC 2998, > 100 µM (inactive); with HCT-15 it was over 100 µM; in the assay on HL-60 it was > 100 µM (inactive). Moreover, the GI50 in the assay with MDA-MB-435, in the assay with MOLT-4, with NCI-H23, with NCI-H522, in the assay with OVCAR-4 and in the assay on SF-539 was > 100 µM (inactive) throughout. Moreover, the GI50 with SK-MEL-28, in the assay with SK-MEL-2, in the assay on SK-OV-3, in the assay on SR, in the assay on T47D and in the assay on TK-10 was > 100 µM (inactive) throughout. Moreover, the GI50 in the assay on U-251 is > 100 µM (inactive).

With `CCOC(=O)C1=C(C)N(CC(C)C)C2(O)C(OC)CC(=O)C3C(=O)N(c4ccccc4)C(=O)C132` (stereo not drawn), the GI50 is 40.4 µM (inactive) with BT-549; 40.4 µM (inactive) in the assay on CCRF-CEM; > 100 µM (inactive) in the assay with EKVX; 24.8 µM (inactive) in the assay on HCC 2998; 23.3 µM with HCT-15; 25 µM (inactive) in the assay with HL-60. Besides, the GI50 in the assay with MDA-MB-435 was 37 µM (inactive); with MOLT-4 it was 15.4 µM (inactive); with NCI-H23, 35 µM (inactive); with NCI-H522, 16.5 µM (inactive); with OVCAR-4, 27.7 µM (inactive); in the assay with SF-539, 49.4 µM (inactive). In addition, the GI50 is 23.8 µM (inactive) with SK-MEL-28; 20.4 µM (inactive) with SK-MEL-2; 21.4 µM (inactive) with SR; 47 µM (inactive) in the assay with T47D; 77.1 µM (inactive) with TK-10; 45.4 µM (inactive) with U-251.

`NS(=O)(=O)c1ccc(N2C(=O)C(=O)N(c3ccccc3)C2=S)cc1`: the GI50 is > 100 µM (inactive) with CCRF-CEM; 93.8 µM (inactive) in the assay with EKVX; > 100 µM (inactive) in the assay with HCC 2998; 60.3 µM in the assay on HCT-15; > 100 µM (inactive) in the assay on HL-60; > 100 µM (inactive) with MDA-MB-435. The GI50 with MDA-N was > 100 µM (inactive); in the assay with MOLT-4 it was > 100 µM (inactive); in the assay on NCI-H23, > 100 µM (inactive); in the assay on NCI-H522, 27 µM (inactive); with OVCAR-4 it was 30.6 µM (inactive); in the assay with SF-539 it was > 100 µM (inactive). Moreover, the GI50 with SK-MEL-28 was > 100 µM (inactive); in the assay on SK-MEL-2, > 100 µM (inactive); in the assay with SK-OV-3 it was > 100 µM (inactive); with SR, 18.9 µM (inactive); in the assay on T47D it was 55.1 µM (inactive); with TK-10 it was > 100 µM (inactive). Besides, in the assay on U-251, the GI50 is > 100 µM (inactive).

`N=C(N)SCc1ccc(N=C=S)cc1`: the GI50 in the assay with CCRF-CEM was 6.93 µM (inactive); in the assay with EKVX it was 15.9 µM (inactive); in the assay with HCC 2998 it was 16.6 µM (inactive); with HCT-15, 11.3 µM; in the assay with HL-60, 5.62 µM (inactive); with MDA-MB-435 it was 13.1 µM (inactive). Further, the GI50 was 13.7 µM (inactive) in the assay on MDA-N; > 100 µM (inactive) in the assay with MOLT-4; 14.2 µM (inactive) in the assay on NCI-H23; 10 µM (inactive) with NCI-H522; 14.3 µM (inactive) in the assay with OVCAR-4; 14.1 µM (inactive) in the assay on SF-539. Further, the GI50 was 14.6 µM (inactive) in the assay on SK-MEL-28; 10.4 µM (inactive) in the assay on SK-MEL-2; 17.3 µM (inactive) in the assay on SK-OV-3; 17.6 µM (inactive) with SR; 13.6 µM (inactive) in the assay on T47D; 14.5 µM (inactive) with TK-10. The GI50 in the assay on U-251 was 15.2 µM (inactive).
